Experimental findings from US20100099676A1 (SHIONOGI & CO., LTD., priority 2006, published 2010) are described below.

By IC50 is commonly meant the concentration that inhibits the measured activity by half.

A value given as a limit tells only on which side of the number the result lay.

Assay in all cases: Enzyme inhibiting activity of MMPs, fluorogenic peptide substrate
Format in all cases: biochemical

One assay deals with T1, MMP-2 (Homo sapiens, UniProt P08253).
T1 construct: purchased Calbiochem (EMD/MERCK Biosciences)
T1 sequence (P08253 110-660): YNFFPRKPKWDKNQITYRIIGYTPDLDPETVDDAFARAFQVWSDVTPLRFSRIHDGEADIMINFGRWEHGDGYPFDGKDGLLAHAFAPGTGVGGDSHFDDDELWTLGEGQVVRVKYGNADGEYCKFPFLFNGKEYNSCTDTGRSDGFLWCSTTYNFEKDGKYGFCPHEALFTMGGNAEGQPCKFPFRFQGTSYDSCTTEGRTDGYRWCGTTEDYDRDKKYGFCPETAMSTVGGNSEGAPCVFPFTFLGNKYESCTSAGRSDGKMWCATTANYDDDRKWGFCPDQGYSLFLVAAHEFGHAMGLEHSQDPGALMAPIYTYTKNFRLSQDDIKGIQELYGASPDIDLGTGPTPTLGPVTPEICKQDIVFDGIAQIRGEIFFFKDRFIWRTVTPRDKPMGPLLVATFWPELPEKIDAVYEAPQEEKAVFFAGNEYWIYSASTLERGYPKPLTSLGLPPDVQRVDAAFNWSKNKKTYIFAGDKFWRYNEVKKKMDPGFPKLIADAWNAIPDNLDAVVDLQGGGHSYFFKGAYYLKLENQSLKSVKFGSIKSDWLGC
The conditions noted are these: substrate MOCAc-Pro-Leu-Gly-Leu-A2Pr(DNP)-Ala-Arg-NH2, fluorescent intensity. In a few lines: (§1)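 Recombinant human enzymes with the fluorogenic substrate MOCAc-Pro-Leu-Gly-Leu-A2Pr(DNP)-Ala-Arg-NH2. Fluorescence was read for enzyme+substrate±inhibitor and substrate±inhibitor blanks.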

The target of a further assay is T2, MMP-9 (Homo sapiens, UniProt P14780).
T2 construct: purchased Calbiochem (EMD/MERCK Biosciences)
T2 sequence (P14780 94-707): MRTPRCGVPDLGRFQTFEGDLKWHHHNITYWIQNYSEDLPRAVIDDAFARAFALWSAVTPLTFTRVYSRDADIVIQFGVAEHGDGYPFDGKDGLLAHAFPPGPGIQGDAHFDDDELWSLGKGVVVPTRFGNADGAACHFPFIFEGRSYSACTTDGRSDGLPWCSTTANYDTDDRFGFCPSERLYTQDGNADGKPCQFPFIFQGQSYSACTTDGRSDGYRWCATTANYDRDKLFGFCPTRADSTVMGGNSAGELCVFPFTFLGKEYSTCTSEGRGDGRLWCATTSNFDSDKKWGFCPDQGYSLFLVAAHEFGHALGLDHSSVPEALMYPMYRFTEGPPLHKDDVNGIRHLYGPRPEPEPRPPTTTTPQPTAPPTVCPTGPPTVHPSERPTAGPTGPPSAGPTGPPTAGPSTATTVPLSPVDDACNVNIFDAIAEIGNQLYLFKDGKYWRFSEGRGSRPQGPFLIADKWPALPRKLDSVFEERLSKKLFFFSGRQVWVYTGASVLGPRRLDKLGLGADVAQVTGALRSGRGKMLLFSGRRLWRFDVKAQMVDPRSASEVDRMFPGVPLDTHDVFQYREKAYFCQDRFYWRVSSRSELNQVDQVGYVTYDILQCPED
The conditions noted are these: substrate MOCAc-Pro-Leu-Gly-Leu-A2Pr(DNP)-Ala-Arg-NH2, fluorescent intensity. In a few lines:
as §1

For a further assay, the target named is T3, MMP-13 (Homo sapiens, UniProt P45452).
T3 construct: purchased Calbiochem (EMD/MERCK Biosciences)
As to conditions: APMA-activated proenzyme; substrate MOCAc-Pro-Leu-Gly-Leu-A2Pr(DNP)-Ala-Arg-NH2, fluorescent intensity; read-out: IC50 MMP-13. An outline of the steps:
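Pro-MMP-13 was activated with 1 mM APMA at 37° C for 2 h in 50 mM Tris-HCl pH 7.6, 0.3 M NaCl, 10 mM CaCl2, 0.005% Brij35. Activity was read by fluorescence using MOCAc-Pro-Leu-Gly-Leu-A2Pr(DNP)-Ala-Arg-NH2 substrate, with enzyme and inhibitor blank corrections. IC50 is the concentration giving 50% inhibition.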

Take `COCCOc1ccc(C#Cc2ccc(N3CCN(S(=O)(=O)N[C@H](C)C(=O)O)CC3)cc2)cc1-c1ncc(CC(=O)NCc2ccccc2)o1` [Compound V-19, (R)-2-(4-{4-[3-[5-(benzylcarbamoylmethyl)-oxazol-2-yl]-4-(2-methoxyethoxy)-phenylethynyl]-phenyl}-piperazine-1-sulfonylamino)-proponic acid]: the IC50 was 1000 to 10000 nM against MMP-2, greater than 10000 nM on MMP-9 and 8 nM at MMP-13.
For the compound `CC(C)[C@@H](NS(=O)(=O)N1CCN(c2ccc(C#Cc3ccnc(C(=O)NCc4ccc(C(=O)NCC#N)cc4)c3)cc2)CC1)C(=O)O` [Compound V-30, (R)-2-[4-(4-{2-[4-(cyanomethylcarbamoyl)-benzylcarbamoyl]-pyridin-4-ylethynyl}-phenyl)-piperazine-1-sulfonylamino]-3-methylbutanoic acid], the results for the IC50 at MMP-2, at MMP-9 and on MMP-13 were 1000 to 10000 nM, greater than 10000 nM and 1 nM, respectively.
For the compound `CCc1cnc(-c2cc(C#Cc3ccc(N4CCN(S(=O)(=O)N[C@@H](C(=O)O)C(C)C)CC4)cc3)ccc2OCCOC)o1` [Compound V-57, (R)-2-(4-{4-[3-(5-ethyloxazol-2-yl)-4-(2-methoxyethoxy)-phenylethynyl]-phenyl}-piperazine-1-sulfonylamino)-3-methylbutanoic acid], the IC50 was 1000 to 10000 nM at MMP-2, greater than 10000 nM on MMP-9 and 13 nM on MMP-13.
In the same order, the values of `C[C@@H](NS(=O)(=O)N1CCN(c2ccc(/C=C/c3cccc(C(=O)NCc4ccccc4)c3)cc2)CC1)C(=O)O` [Compound I-2, (R)-2-(4-{4-[(E)-2-(3-benzylcarbamoylphenyl)-vinyl]-phenyl}-piperazine-1-sulfonylamino)-proponic acid] are 100 to 1000 nM, greater than 10000 nM and 3.8 nM.
Regarding `COc1ccc(Cn2c(=O)c3cc(C#Cc4ccc(N5CCN(S(=O)(=O)N[C@@H](C(=O)O)C(C)C)CC5)cc4)ccc3n(C)c2=O)cc1` [III-80, (R)-2-(4-{4-[3-(4-methoxybenzyl)-1-methyl-2,4-dioxo-1,2,3,4-tetrahydroquinazolin-6-ylethynyl]-phenyl}-piperazine-1-sulfonylamino)-3-methylbutanoic acid], the IC50 on MMP-2 is greater than 10000 nM; against MMP-9 it was greater than 10000 nM; on MMP-13, 13 nM.
Consider `Cc1cc(CNC(=O)c2cc(C#Cc3ccc(N4CCN(S(=O)(=O)N[C@@H](C(=O)O)C(C)C)CC4)cc3)ccn2)ccc1F` [III-184, (R)-2-(4-{4-[2-(4-fluoro-3-methylbenzylcarbamoyl)-pyridin-4-ylethynyl]-phenyl}-piperazine-1-sulfonylamino)-3-methylbutanoic acid], for which the results for the IC50 against MMP-2, against MMP-9 and on MMP-13 were 1000 to 10000 nM, greater than 10000 nM and 14 nM, respectively.
In the same order, the values of `CC(C)[C@@H](NS(=O)(=O)N1CCN(c2ccc(C#Cc3ccnc(C(=O)NCc4cc(Cl)cc(Cl)c4)c3)cc2)CC1)C(=O)O` [III-157, (R)-2-(4-{4-[2-(3,5-dichlorobenzylcarbamoyl)-pyridin-4-ylethynyl]-phenyl}-piperazine-1-sulfonylamino)-3-methylbutanoic acid] are greater than 10000 nM, greater than 10000 nM and 19 nM.
Taken in the same sequence, the figures for `CC(C)[C@@H](NS(=O)(=O)N1CCN(c2ccc(C#Cc3ccnc(C(=O)NCc4ccc(N(C)C)cc4)c3)cc2)CC1)C(=O)O` [III-212, (R)-2-(4-{4-[2-(4-dimethylaminobenzylcarbamoyl)-pyridin-4-ylethynyl]-phenyl}-piperazine-1-sulfonylamino)-3-methylbutanoic acid] were 1000 to 10000 nM, greater than 10000 nM and 4 nM.
In the same order, the values of `CC(C)[C@@H](NS(=O)(=O)N1CCN(c2ccc(C#Cc3ccnc(C(=O)NCc4ccc(F)cc4)c3)cc2)CC1)C(=O)O` [III-152, (R)-2-(4-{4-[2-(4-fluorobenzylcarbamoyl)-pyridin-4-ylethynyl]-phenyl}-piperazine-1-sulfonylamino)-3-methylbutanoic acid] are 1000 to 10000 nM, greater than 10000 nM and 8 nM.
As to `CCC(=O)c1cccc2ccc(C#Cc3ccc(N4CCN(S(=O)(=O)N[C@@H](C(=O)O)C(C)C)CC4)cc3)cc12` [III-87, (R)-2-{4-[4-(8-propionylnaphthalen-2-ylethynyl)-phenyl]-piperazine-1-sulfonylamino}-3-methylbutanoic acid], the IC50 against MMP-2 is greater than 10000 nM; at MMP-9, greater than 10000 nM; at MMP-13 it was 25 nM.
On to `COCCOc1ccc(C#Cc2ccc(N3CCN(S(=O)(=O)N[C@@H](C(=O)O)C(C)C)CC3)cc2)cc1C(=O)NCC#N` [III-2, (R)-2-(4-{4-[3-(cyanomethylcarbamoyl)-4-(2-methoxyethoxy)-phenylethynyl]-phenyl}-piperazine-1-sulfonylamino)-3-methylbutanoic acid], for which the IC50 at MMP-2 was 1000 to 10000 nM; against MMP-9 it was greater than 10000 nM; on MMP-13, 9 nM.
In the same order, the values of `CCC[C@H](NS(=O)(=O)N1CCN(c2ccc(C#Cc3ccnc(C(=O)NCc4ccc(OC)cc4)c3)cc2)CC1)C(=O)O` [Compound V-33, (5)-2-(4-{4-[2-(4-methoxybenzylcarbamoyl)-pyridin-4-ylethynyl]-phenyl}-piperazine-1-sulfonylamino)-pentanoic acid] are 1000 to 10000 nM, greater than 10000 nM and 3 nM.
In the same order, the values of `C[C@@H](NS(=O)(=O)N1CCN(c2ccc(C#Cc3ccc4c(c3)c(=O)n(Cc3ccc(F)cc3)c(=O)n4C)cc2)CC1)C(=O)O` [Compound V-71, (R)-2-(4-{4-[3-(4-fluorobenzyl)-1-methyl-2,4-dioxo-1,2,3,4-tetrahydroquinazolin-6-ylethynyl]-phenyl}-piperazine-1-sulfonylamino)-proponic acid] are greater than 10000 nM, greater than 10000 nM and 8 nM.
Regarding `CC(C)Oc1ccc(C#Cc2ccc(N3CCN(S(=O)(=O)N[C@H](C)C(=O)O)CC3)cc2)cc1C(=O)NCc1cccc(Cl)c1` [III-118, (R)-2-(4-{4-[3-(3-chrolobenzylcarbamoyl)-4-isopropoxyphenylethynyl]-phenyl}-piperazine-1-sulfonylamino)-proponic acid], the figures for the IC50 on MMP-2, against MMP-9 and on MMP-13 were greater than 10000 nM, greater than 10000 nM and 28 nM, respectively.
As to `COc1ccc(Cn2ccc3ccc(C#Cc4ccc(N5CCN(S(=O)(=O)N[C@H](C(=O)O)C(C)C)CC5)cc4)cc3c2=O)cc1` [Compound V-37, (S)-2-(4-{4-[2-(4-methoxybenzyl)-1-oxo-1,2-dihydroisoquinolin-7-ylethynyl]-phenyl}-piperazine-1-sulfonylamino)-3-methylbutanoic acid], the figures for the IC50 against MMP-2, on MMP-9 and on MMP-13 were greater than 10000 nM, greater than 10000 nM and 20 nM, respectively.
With `C[C@@H](NS(=O)(=O)N1CCN(c2ccc(C#Cc3cccc(-c4ncc(-c5ccc(F)cc5)o4)c3)cc2)CC1)C(=O)O` [III-12, (R)-2-[4-(4-{3-[5-(4-fluorophenyl)-oxazol-2-yl]-phenylethynyl}-phenyl)-piperazine-1-sulfonylamino]-proponic acid], the values for the IC50 on MMP-2, against MMP-9 and at MMP-13 were greater than 10000 nM, greater than 10000 nM and 4 nM, respectively.
Regarding `CNC(=O)c1ccc(COc2cccc(-c3csc(C#Cc4ccc(N5CCN(S(=O)(=O)N[C@@H](C(=O)O)C(C)C)CC5)cc4)n3)c2)cc1` [Compound V-79, (R)-3-methyl-2-[4-(4-{4-[3-(4-methylcarbamoylbenzyloxy)-phenyl]-thiazol-2-ylethynyl}-phenyl)-piperazine-1-sulfonylamino]-butanoic acid], the IC50 was greater than 10000 nM on MMP-2, greater than 10000 nM against MMP-9 and 4 nM on MMP-13.
With `COC(=O)c1ccc(COc2cccc(-c3csc(C#Cc4ccc(N5CCN(S(=O)(=O)N[C@H](C)C(=O)O)CC5)cc4)n3)c2)cc1` [Compound V-22, 4-[3-(2-{4-[4-((R)-1-carboxyethylsulfamoyl)-piperazin-1-yl]-phenylethynyl}-thiazol-4-yl)-phenoxymethyl]-benzoic acid methyl ester], the IC50 was greater than 10000 nM against MMP-2, greater than 10000 nM at MMP-9 and 8 nM on MMP-13.
